Consider two compounds from patent publication US10421774B2 (priority 2016, dated 2019).

In assay [1] the test system is V362I site directed mutant virus. The assay is described as follows: Anti-viral sensitivity of site directed mutants, V362I. The following applies: genotype V362I, sensitivity relative to wt virus. It is filed as cell-based, HIV-1. An excerpt:
(§1) Viruses. NLRepRluc virus contains the Renilla luciferase marker in place of the viral nef gene. The proviral plasmid pNLRepRluc was constructed at Bristol-Myers Squibb, starting from a proviral NL4-3 clone (B subtype) that was obtained from the NIH AIDS Research and Reference Reagent Program. The parental recombinant wild type (WT) virus (NLRepRlucP373S) was derived from NLRepRluc and contains the additional substitution of P373 for serine in Gag (within the SP1 spacer), the most common 373 variation in subtype B. Other recombinant viruses (A364V, V370A/ΔT371 and the “T3325 triple” (T332S/V362I+HIV-1 protease R41G)) were generated by site-directed mutagenesis of plasmid pNLRepRlucP373S to introduce those amino acid substitutions in Gag and protease. […] Titers of virus stocks were determined using a luciferase assay (Dual-Luciferase® Reporter Assay System, Promega, Milwaukee, Wis., USA) endpoint.
(§2) Multiple cycle drug susceptibility assay. […] After 4-5 day incubation at 37° C./CO2, virus yields were determined by Renilla luciferase activity (Dual-Luciferase® Reporter Assay System, Promega). The endpoint luminescence was detected on a Wallac Trilux (PerkinElmer).
(§3) Starting from wt virus, the HIV protease R41G substitution was detected in one of three in vitro selections for resistance to the MI compound above along with Gag V362I and Gag T332S. […]

For assay [2], the system named is V362I/prR41G site directed mutant virus. As to the kind of experiment: Anti-viral sensitivity of site directed mutants, V362I/prR41G. Type of assay: cell-based, HIV-1. The following applies: genotype V362I/prR41G, sensitivity relative to wt virus.
Text: as §1, §2, §3

The test system of assay [3] is T332S site directed mutant virus. The assay is described as follows: Anti-viral sensitivity of site directed mutants, T332S. It is filed as cell-based, HIV-1. The following applies: genotype T332S, sensitivity relative to wt virus.
Text: as §1, §2, §3

The test system of assay [4] is HIV protease R41G site directed mutant virus. The assay is described as follows: Anti-viral sensitivity of site directed mutants, HIV protease R41G. Type of assay: cell-based, HIV-1. The following applies: genotype HIV protease R41G, sensitivity relative to wt virus.
Text: as §1, §2, §3

For assay [5], the system named is T332S/V362I/Pr R41G virus. As to the kind of experiment: microbe, parasite or virus in culture. It is filed as cell-based, HIV-1. The following applies: genotype T332S/V362I/Pr41G, sensitivity relative to wt virus. An outline of the steps:
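Multiple-cycle susceptibility: MT-2 cells, 10,000 per well, exposed to 3-fold compound dilutions at 1% DMSO after infection with luciferase-normalized inoculum. Virus: NL4-3-derived Renilla reporter (Gag P373S) with Gag T332S/V362I and protease R41G. Readout Renilla luciferase after 4–5 days, 37 °C.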

Assay [6] concerns T332S/prR41G site directed mutant virus. The assay is described as follows: Anti-viral sensitivity of site directed mutants, T332S/prR41G. Type of assay: cell-based, HIV-1. The following applies: genotype T332S/prR41G, sensitivity relative to wt virus.
Text: as §1, §2, §3

The test system of assay [7] is T332S/V362I site directed mutant virus. As to the kind of experiment: Anti-viral sensitivity of site directed mutants, T332S/V362I. It is filed as cell-based, HIV-1. The following applies: genotype T332S/V362I, sensitivity relative to wt virus.
Text: as §1, §2, §3

The test system of assay [8] is viruses that contain T332S and HIV protease R41G combinations, with and without V362I. The assay is described as follows: Anti-viral sensitivity of site directed mutants, single and double combinations summarised in text. The following applies: viruses with only a single change. It is filed as cell-based, HIV-1. An excerpt:
Starting from wt virus, the HIV protease R41G substitution was detected in one of three in vitro selections for resistance to the MI compound above along with Gag V362I and Gag T332S. R41G is not a primary PI resistance substitution^i and is not present in the LANL database (2010). There is a single report of R41G associated with in vitro selection for resistance to an investigational PI^ii. […] A related change, R41K, is a common subtype B polymorph (27% of LANL database), and R41K may be involved in the emergence of protease resistance to an investigational protease inhibitor.^iii R41 is located in a loop proximal to the HIV-1 protease substrate binding site, and this change might act allosterically to facilitate closing the protease active site pocket over the substrate, thereby allowing catalysis. It might be that R41G alters the dynamics of the loop motion and the final positioning of the loop, which could cause the active site to better recognize the primary MI compound (above)-selected changes (V362I/T332S). An analysis of the V362I/T332S/Pr R41G substitutions, and their effects on MI compound susceptibility and viral growth, are described in the Table 1 below:
Viruses were constructed that contain T332S and HIV protease R41G combinations, with and without V362I.). […]

A further assay deals with HIV-1 strain NL4-4 virus. The assay is described as follows: Selection for resistance to the MI compound, EC50 for the starting virus. It is filed as cell-based. The following applies: Human immunodeficiency virus 1, read-out: EC50 for this virus. An excerpt:
T332sN362I/Pr R41G (N14.3, B Clade) virus′ was obtained as follows: Selection for resistance of HIV-1 strain […] virus with the HIV maturation inhibitor (MI) compound
At passage 8 virus was harvested and sequenced.

On to `C=C(C)[C@@H]1CC[C@]2(C(=O)O)CC[C@]3(C)[C@H](CC[C@@H]4[C@@]5(C)CC[C@H](OC(=O)CC(C)(C)C(=O)O)C(C)(C)[C@@H]5CC[C@]43C)[C@@H]12` [BVM, 3β-(3-carboxy-3-methyl-butanoyloxy) lup-20(29)-en-28-oic acid], for which the Fold wt in [1] amounted to 0.6; in [2], 3.9; in assay [3], 23; in [4], 1.9; in assay [5], 10; in assay [6] it was 4.2. For the same compound, the Fold wt in assay [7] is 3.1.
Regarding `C=C(C)[C@@H]1CC[C@]2(NCCN3CCS(=O)(=O)CC3)CC[C@]3(C)[C@H](CC[C@@H]4[C@@]5(C)CC=C(c6ccc(C(=O)O)cc6)C(C)(C)[C@@H]5CC[C@]43C)[C@@H]12` [MI compound], the Fold wt in [1] worked out at 2.2; in [2], 9.3; in [3], 1.9; in [4], 1.5; in assay [5] it was 217; in [6], 6.1. Moreover, in assay [7], the Fold wt was 5.7. The fold less sensitive in assay [8] is reported as 2 fold. For the same compound, the EC50 (in general, the concentration needed to bring the measured effect to its halfway point) in the assay with HIV-1 strain NL4-4 virus was 2 nM.
